# Measured values reported in patent publication US12186283B2, “Bismuth-thiol compositions and methods of use” (Microbion Corporation, priority 2018, dated 2025).
# Where “and” joins values, the source holds several entries; their conditions need not be identical. Equal values may be shown once. Read-outs that look alike come from different tables or passages of the source. *1 amine or outer side, *2 acyl side, *3 side chain or, on linkers, in order; H or OH if unused. Where a SMILES comes first, the peptide text is derived from it. Bridges are numbered along the chain shown (N, C = ends). [ ]: non-standard residue; d: D form. The star is where a group is joined. hTyr(3S-OH,4S-OH,3'-OSO3H) = N[C@H](C(=O)O)[C@H](O)[C@@H](O)c1ccc(O)c(OS(=O)(=O)O)c1; Orn(4R-OH,5R-OH) = O=C([C@H](C[C@@H](O)[C@@H](O)N[*:3])N[*:1])[*:2]; Pro(3S-OH,4S-Me) = C[C@H]1CN[C@H](C(=O)O)[C@H]1O; X1 = CCCCCOc1ccc(-c2cc(-c3ccc(C(=O)*)cc3)no2)cc1; Gln(3R-OH) = NC(=O)C[C@@H](O)[C@H](N)C(=O)O; Hyp = O=C(O)[C@@H]1C[C@@H](O)CN1
# Key:
# [1] = system: S. aureus ATCC 29213; details: control strain ATCC 29213 S. aureus; per CLSI M100-S24 or provided by Microbion; cited from earlier work
# [2] = system: Burkholderia cepacia complex; assay: Broth microdilution MIC (Example 10); details: initial MIC testing
# [3] = system: P. aeruginosa; assay: Broth microdilution MIC (Example 10)
# [4] = system: P. aeruginosa; details: P. aeruginosa isolate 103, CLSI QC range in parenthesis, cited from earlier work
# [5] = system: P. aeruginosa; assay: Checkerboard FIC assay, BisEDT with CF agents (Example 10); assay type: cell-based, Pseudomonas aeruginosa; details: for MIC: agent alone, as observed during FIC testing
# [6] = system: Burkholderia cepacia complex; assay: as above; assay type: cell-based, Burkholderia spp.; details: for MIC: agent alone, as observed during FIC testing
# [7] = system: S. aureus ATCC 29213; assay: Broth microdilution MIC, QC organism (Example 13, Table 110); assay type: cell-based, Staphylococcus aureus
# Source text: (§1) MECs were only reported where observed.
# [8] = system: Candida krusei; details: C. krusei ATCC 6258, CLSI established QC range, cited from earlier work
# [9] = system: Candida spp.; details: C. parapsilosis ATCC 22019, CLSI established QC range, cited from earlier work
# [10] = system: Aspergillus spp.; assay: Broth microdilution MIC/MEC, mold (Example 13); assay type: cell-based; details: MEC
# [11] = system: Candida krusei; assay: Broth microdilution MIC, yeast (Example 13); assay type: cell-based; details: C. krusei ATCC 6258 (QC, Table 110), comparators, single value
# [12] = system: Candida spp.; assay: Broth microdilution MIC, yeast (Example 13), group statement and QC; assay type: cell-based; details: C. parapsilosis ATCC 22019, comparators, single value
# [13] = system: E. coli ATCC 25922; assay: Broth microdilution MIC, QC organism (Example 13, Table 110); assay type: cell-based, Escherichia coli
# Source text: as §1
# [14] = system: Pseudomonas aeruginosa strain PA01; assay: Bacterial killing curves with and without 10% CF patient sputum
# [15] = Aerosol particle size distribution of nebulized suspensions (cascade impactor / APS); details: exposure aerosols of the rat efficacy study, In-Tox Mercer Impactor
# [16] = A. flavus ATCC 204304 (QC, Table 110)
# [17] = A. fumigatus ATCC MYA-3626 (QC, Table 110)
smiles,measurement,setting,value
CC[C@H]1OC(=O)[C@H](C)[C@@H](O[C@H]2C[C@@](C)(OC)[C@@H](O)[C@H](C)O2)[C@H](C)[C@@H](O[C@@H]2O[C@H](C)C[C@H](N(C)C)[C@H]2O)[C@](C)(OC)C[C@@H](C)C(=O)[C@H](C)[C@@H](O)[C@]1(C)O [Clarithromycin],Expected MIC: acceptable range,[1],0.12 to 0.5 µg/mL
same,Expected MIC: goal,[1],0.25 µg/mL
NC[C@H]1O[C@H](O[C@H]2[C@H](O)[C@@H](O[C@H]3O[C@H](CO)[C@@H](O)[C@H](N)[C@H]3O)[C@H](N)C[C@@H]2N)[C@H](N)C[C@@H]1O [TOB],MIC,[2]; B. cenocepacia isolate 0548 (CIP-R),64 µg/mL
same,MIC,[2]; B. cenocepacia isolate 0813 (CPI-I),256 µg/mL
same,MIC,[2]; B. cepacia isolate 0546,64 µg/mL
same,MIC,[2]; B. cepacia isolate 1793,64 µg/mL
same,MIC,[2]; B. cepacia isolate 9040,8 µg/mL
same,MIC,[2]; B. multivorans isolate 1791,64 µg/mL
same,MIC,[2]; B. multivorans isolate 5665 (CIP-I),64 µg/mL
same,MIC,[2]; B. multivorans isolate 8952 (CIP-I),16 µg/mL
same,MIC,"[3]; P. aeruginosa isolate 103 (ATCC 25922), QC strain, initial MIC testing",1 µg/mL
same,MIC,"[3]; P. aeruginosa isolate 103 (ATCC 25922), during FIC testing, each agent tested alone for QC, one replicate",1 µg/mL
same,MIC,"[3]; P. aeruginosa isolate 1497 (TOB-R, AMK-R, CIP-I, AZT-R, COL-R), initial MIC testing",16 µg/mL
same,MIC,"[3]; P. aeruginosa isolate 1530 (TOB-R, AMK-R, CIP-R), initial MIC testing",32 µg/mL
same,MIC,"[3]; P. aeruginosa isolate 1553 (TOB-R, AMK-R, CIP-R), initial MIC testing",>256 µg/mL
same,MIC,"[3]; P. aeruginosa isolate 6322 (MEM-R, TOB-R, AMK-R, CIP-R, AZT-R), initial MIC testing",128 µg/mL
same,MIC,"[3]; P. aeruginosa isolate 6977 (MEM-I, TOB-R, CIP-R, AZT-I), initial MIC testing",128 µg/mL
same,MIC,"[3]; P. aeruginosa isolate 7745 (MEM-R, CIP-R, AZT-R), initial MIC testing",0.5 µg/mL
same,MIC,"[3]; P. aeruginosa isolate 7754 (MEM-R, TOB-R, CIP-R, AZT-I), initial MIC testing",32 µg/mL
same,MIC,"[3]; P. aeruginosa isolate 7762 (MEM-I, CIP-I), initial MIC testing",1 µg/mL
same,MIC,"[3]; P. aeruginosa isolate 7871 (MEM-R, AZT-I), initial MIC testing",0.5 µg/mL
same,MIC,"[3]; P. aeruginosa isolate 7874, initial MIC testing",0.5 µg/mL
same,MIC,"[3]; P. aeruginosa isolate 7886 (MEM-R, CIP-R, AZT-R), initial MIC testing",1 µg/mL
same,MIC,"[3]; P. aeruginosa isolate 8797 (MEM-R, TOB-R, AMK-R, CIP-R, AZT-R, COL-R), initial MIC testing",>256 µg/mL
same,MIC,"[3]; P. aeruginosa isolate 8798 (MEM-R, TOB-R, AMK-R, CIP-R, AZT-R, COL-R), initial MIC testing",32 µg/mL
same,MIC,"[3]; P. aeruginosa isolate 9108 (CIP-R, AZT-I), initial MIC testing",0.5 µg/mL
same,"MIC, CLSI QC range",[4]; Table 24,(0.25-1) μg/mL
same,"MIC, CLSI QC range",[4]; Table 26,(0.25-1) μg/mL
same,MIC,[5]; P. aeruginosa isolate 6322,128 µg/mL
same,MIC,[5]; P. aeruginosa isolate 6977,128 µg/mL
same,MIC,[5]; P. aeruginosa isolate 7745,0.5 µg/mL
same,MIC,[5]; P. aeruginosa isolate 8798,16 µg/mL
same,MIC,[5]; P. aeruginosa isolate 9108,0.5 µg/mL
same,MIC,[6]; B. cenocepacia isolate 0548,32 µg/mL
same,MIC,[6]; B. cenocepacia isolate 0813,256 µg/mL
same,MIC,[6]; B. cepacia isolate 1793,16 µg/mL
CC[C@H](C)C[C@H](C)CCCCCCCCC(=O)N[C@H]1C[C@@H](O)[C@@H](NCCN)NC(=O)[C@@H]2[C@@H](O)CCN2C(=O)[C@H]([C@H](O)CCN)NC(=O)[C@H]([C@H](O)[C@@H](O)c2ccc(O)cc2)NC(=O)[C@@H]2C[C@@H](O)CN2C(=O)[C@H]([C@@H](C)O)NC1=O [Caspofungin],MIC 24 hr,[7],> 64 µg/mL
same,QC Range 24 hr,[8],0.12-1
same,QC Range 48 hr,[8],0.25-2
same,QC Range 24 hr,[9],0.25-1
same,QC Range 48 hr,[9],0.5-4
same,MIC 24 hr (MEC),[10]; [16],0.12
same,MIC 24 hr,[11],0.25 µg/mL
same,MIC 48 hr,[11],0.25 µg/mL
same,MIC 24 hr,[12],0.25 µg/mL
same,MIC 48 hr,[12],0.5 µg/mL
same,MIC 24 hr,[13],> 64 µg/mL
"NC[C@H]1O[C@H](O[C@H]2[C@H](O)[C@@H](O[C@H]3O[C@H](CO)[C@@H](O)[C@H](N)[C@H]3O)[C@H](N)C[C@@H]2N)[C@H](N)C[C@@H]1O [Tobramycin, reference compound]",CFU higher in cultures with sputum than without,"[14]; PA01, 1 μg/mL, 10% CF sputum, most time points",0.5-1 log CFU/mL
same,effect of CF patient sputum on bactericidal activity,"[14]; PA01, 10% CF patient sputum",partially inhibits
same,MMAD,[15],2.81 μm
same,FICB,"[5]; P. aeruginosa 6322, FIC of Tobramycin in combination with BisEDT, panel rows C-G",1
same,MICB,"[5]; P. aeruginosa 6322, MIC of Tobramycin in combination with BisEDT, panel rows C-G",128 µg/mL
same,FICB,"[5]; P. aeruginosa 6977, Tobramycin FIC in combination with BisEDT, per checkerboard row",2
same,MICB,"[5]; P. aeruginosa 6977, Tobramycin MIC in combination with BisEDT, per checkerboard row",256 µg/mL
same,FICB,"[5]; P. aeruginosa 7745, Tobramycin FIC in combination with BisEDT, per checkerboard row",1
same,MICB,"[5]; P. aeruginosa 7745, Tobramycin MIC in combination with BisEDT, per checkerboard row",0.5 µg/mL
same,FICB,"[5]; P. aeruginosa 9108, Tobramycin FIC in combination with BisEDT, per checkerboard row",1
same,MICB,"[5]; P. aeruginosa 9108, Tobramycin MIC in combination with BisEDT, per checkerboard row",0.5 µg/mL
same,FICB,"[6]; B. cenocepacia 548, FIC of Tobramycin in combination with BisEDT",0.25
same,FICB,"[6]; B. cenocepacia 813, FIC of Tobramycin in combination with BisEDT",1
same,FICB,"[6]; B. cepacia 546, Tobramycin FIC in combination with BisEDT, per checkerboard row",0.5
same,MICB,"[6]; B. cepacia 546, Tobramycin MIC in combination with BisEDT, per checkerboard row",16 µg/mL
same,FICB,"[6]; B. cepacia 1793, Tobramycin FIC in combination with BisEDT, per checkerboard row",0.5 and 1
same,MICB,"[6]; B. cepacia 1793, Tobramycin MIC in combination with BisEDT, per checkerboard row",8 µg/mL and 16 µg/mL
same,FICB,"[6]; B. multivorans 1795, FIC of Tobramycin in combination with BisEDT",1
same,MICB,"[6]; B. multivorans 1795, MIC of Tobramycin in combination with BisEDT",>256 µg/mL
"CCCCCOc1ccc(-c2cc(-c3ccc(C(=O)N[C@H]4C[C@@H](O)[C@@H](O)NC(=O)[C@@H]5[C@@H](O)[C@@H](C)CN5C(=O)[C@H]([C@H](O)CC(N)=O)NC(=O)[C@H]([C@H](O)[C@@H](O)c5ccc(O)c(OS(=O)(=O)O)c5)NC(=O)[C@@H]5C[C@@H](O)CN5C(=O)[C@H]([C@@H](C)O)NC4=O)cc3)no2)cc1 [Micafungin] (X1-[Orn(4R-OH,5R-OH)]T[Hyp][hTyr(3S-OH,4S-OH,3'-OSO3H)][Gln(3R-OH)][Pro(3S-OH,4S-Me)]; lactam 1-C)",MIC 24 hr,[7],> 64 µg/mL
same,QC Range 24 hr,[8],0.12-0.5
same,QC Range 48 hr,[8],0.12-0.5
same,QC Range 24 hr,[9],0.5-2
same,QC Range 48 hr,[9],0.5-4
same,MIC 24 hr (MEC),[10]; [16],0.06
same,MIC 48 hr (MEC),[10]; [16],0.008
same,MIC 24 hr (MEC),[10]; [17],0.03
same,MIC 48 hr (MEC),[10]; [17],0.008
same,MIC 24 hr,[11],0.5 µg/mL
same,MIC 48 hr,[11],0.5 µg/mL
same,MIC 24 hr,[12],0.5 µg/mL
same,MIC 48 hr,[12],2 µg/mL
same,MIC 24 hr,[13],> 64 µg/mL
